Values quoted from earlier work, collected in paper PMC3946937 (Pharmaceutical research, 2013).
Like-named read-outs stand apart in the source and are kept apart here.

Experiments:
[1] = system: Mtb
[2] = system: Mtb; details: read-out: Mtb Activity in vitro: IC90
[3] = system: Mtb; remark: listed apart in the source

## O=C(Nc1ccc(F)c(F)c1F)NC1C2CC3CC(C2)CC1C3 (stereo not shown) [AU1235]
[1]
  Mtb Activity in vitro: MIC: MIC 0.1μg/ml

## CN1C(=O)[C@]23CC4=CC=C[C@H](O)[C@H]4N2C(=O)[C@@]1(CO)SS3 [Gliotoxin]
[2]
  IC90: 0.14 µM

## CCCCC1C(=O)N(c2ccccc2)N(c2ccc(O)cc2)C1=O (stereo not shown) [Oxyphenbutazone]
[3]
  Mtb Activity in vitro: MIC: MIC 10μg/ml
[3]; non-replicating TB
  Notes: activity in words: Active against non-replicating TB Metabolite active against replicating TB-screened ~5600 compounds
